{"source": "patent US12281333B2", "about": "“Renal tube assay device and methods of manufacture and use” (The University of Kansas, priority 2020, dated 2025)", "key": {"tubules of MDCK cells": {"test_system": "tubules of MDCK cells", "assay": "Contractility of renal tubule model lined by MDCK cells (kymogram analysis of time-lapse images)", "format": "cell-based, canine", "details": "250 μm wide MDCK-lined tunnels in collagen I gel; 50 μM inhibitor then washout; FIG. 3B, n=2", "protocol": "Time-lapse recordings of kidney epithelial cells in hydrogel tunnels were performed on a Zeiss Axio Observer Z1 ® inverted microscope with a 10× Plan Neofluar® objective. The microscope was equipped with a Marzhauser SCAN-IM powered stage and a Zeiss AxioCam® MRm CCD camera. Cell cultures established in flow chambers within cell culture dishes (Greiner) were continuously kept in a stage-incubator (Cell Movie) providing 37° C. and humidified 5% CO2 atmosphere. Stage positioning, focusing and image collection were all controlled by Zeiss Axiovision® 4.8 software and a custom-made experiment manager software module. […]\nContraction of renal tubule models were analyzed on the basis of image series captured by phase-contrast time-lapse video microscopy. […]\nThe inhibitor was applied at 50 μM final concentration in the flow chamber without circulation, resulting in dilation of the tunnel within 30 minutes. […] Both the dilation and contraction responses were quantitatively analyzed by constructing kymograms from the phase-contrast time-lapse image series as shown in FIG. 3A. […] The relative contraction (as defined by the ratio of the measured contraction to tubule diameter) is larger for tubules with smaller diameters: while the 250 μm tubule contracts almost 13% of its diameter, a 600 μm large tubule contracts only about 5% as shown in FIG. 3C. […]"}, "tubules of M1 cells": {"test_system": "tubules of M1 cells", "assay": "Contractility of renal tubule model lined by M1 cells (kymogram analysis of time-lapse images)", "format": "cell-based, mouse", "details": "for relative contraction (ratio of measured contraction to tubule diameter): percent of untreated tubule diameter, FIG. 3C", "protocol": "Time-lapse recordings of kidney epithelial cells in hydrogel tunnels were performed on a Zeiss Axio Observer Z1 ® inverted microscope with a 10× Plan Neofluar® objective. The microscope was equipped with a Marzhauser SCAN-IM powered stage and a Zeiss AxioCam® MRm CCD camera. Cell cultures established in flow chambers within cell culture dishes (Greiner) were continuously kept in a stage-incubator (Cell Movie) providing 37° C. and humidified 5% CO2 atmosphere. Stage positioning, focusing and image collection were all controlled by Zeiss Axiovision® 4.8 software and a custom-made experiment manager software module. Phase contrast images were collected consecutively in every 10 minutes from several microscopic fields for up to 4 days. Alternatively, for real-time video microscopy the images were captured at a rate of 20 frames per second.\nContraction of renal tubule models were analyzed on the basis of image series captured by phase-contrast time-lapse video microscopy. Using NIH ImageJ software's Reslice function image series were resliced along a cross sectional line across the tubule resulting in a kymogram.\nFor inhibition of actomyosin contractility, Y27632, a cell-permeable Rho kinase inhibitor, (Merck Millipore (9) was applied. The inhibitor was dissolved in water and kept in 10 mM stock solutions and used at 50 μM final concentration. For control treatments, an identical volume of water was applied.\nThe inhibitor was applied at 50 μM final concentration in the flow chamber without circulation, resulting in dilation of the tunnel within 30 minutes. […] Both the dilation and contraction responses were quantitatively analyzed by constructing kymograms from the phase-contrast time-lapse image series as shown in FIG. 3A. In a collagen I gel, the diameter of 250 μm wide M1- or MDCK-lined tunnels contracted by 20 or 15 μm, respectively as shown in FIG. 3B. The relative contraction (as defined by the ratio of the measured contraction to tubule diameter) is larger for tubules with smaller diameters: while the 250 μm tubule contracts almost […] of its diameter, a 600 μm large tubule contracts only about 5% as shown in FIG. 3C.\nFIGS. 3A-3C show the contractility of model renal tubules. FIG. 3A includes a representative kymogram along a perpendicular cross section of a tubule of M1 cells in collagen I gel matrix. Time progresses from top to bottom, a 10h long interval is indicated by the arrow. The duration of treatment with 50 μM Y27632 Rho kinase inhibitor is indicated with the red line (scale bar: 50 μm). FIGS. 3B-3C include graphs illustrating quantitative analysis of tubule contractility. […] Error bars represent SEM."}}}
{"smiles": "C[C@@H](N)[C@H]1CC[C@H](C(=O)Nc2ccncc2)CC1", "note": "[Y27632]", "values": [{"measurement": "contraction of tunnel diameter", "setting": "tubules of MDCK cells", "result": 15, "unit": "μm"}, {"measurement": "time to dilation of the tunnel", "setting": "tubules of M1 cells; 50 μM final concentration in the flow chamber without circulation, cell line not given, FIG. 3A kymogram is M1 cells in collagen I gel", "result": "≤ 30", "unit": "min"}, {"measurement": "relative contraction (ratio of measured contraction to tubule diameter)", "setting": "tubules of M1 cells; 250 μm tubule of M1 cells", "result": "~13", "unit": "%"}, {"measurement": "contraction of tunnel diameter", "setting": "tubules of M1 cells; 250 μm wide M1-lined tunnels in collagen I gel, 50 μM inhibitor then washout, FIG. 3B, n=2", "result": 20, "unit": "μm"}, {"measurement": "relative contraction (ratio of measured contraction to tubule diameter)", "setting": "tubules of M1 cells; 600 μm tubule of M1 cells", "result": "about 5%"}, {"measurement": "effect of subsequent washout of the inhibitor on the tunnel", "setting": "tubules of M1 cells; after 50 μM treatment, washout", "result": "gradual contraction of the tunnel to approximately its initial state"}]}
